Experiments:
[1] = Ricinus Oil Test in Rats (antidiarrheal activity); format: in vivo; settings: compound 1 hour before 1 ml ricinus oil orally, no diarrhea in 50% of animals 1 hour after ricinus oil, fasted female Wistar rats; for ED50: Rattus norvegicus, po, 1 h; for Ricinus Oil Test ED50: oral, 60 min
Text: The use of the compounds of formula (I), their N-oxide forms, pharmaceutically acceptable acid-addition salts and stereoisomeric forms thereof in the method of the present invention is based on their useful antidiarrheal activity. This property is clearly evidenced by the experimental data obtained in, for example, the "Ricinus oil Test in Rats". […] By virtue of their useful antidiarrheal activity, it is evident that the compounds of formula (I), their N-oxide forms, pharmaceutically acceptable acid addition salts and stereoisomeric forms can be used in the treatment of diarrhea.
Female Wistar rats were fasted overnight. Each animal was treated orally with a dose level of the compound to be tested. One hour thereafter, the animal received 1 ml of ricinus oil orally. Each animal was kept in an individual cage and 1 hour after the ricinus oil treatment, the presence or absence of diarrhea was noted. The ED50 value was determined as that dose in mg/kg body weight, at which no diarrhea was present in 50% of the tested animals. Said ED50 -values for the compounds of the present invention can be found in the first column of Table 1.

[2] = Tail Withdrawal Test in Rats (undesired central effects); format: in vivo; settings: oral, tail in 55° C. water, suppression of withdrawal response exceeding 10 seconds in 50% of animals, fasted male Wistar rats; for ED50: Rattus norvegicus
Description: Male Wistar rats were fasted overnight. Each animal was treated orally with a dose level of the compound to be tested. The thus treated rats Were put into individual restraining cages. At various time periods after administration, the lower 5 cm portion of the tail was immersed into a cup filled with water at a constant temperature of 55° C. The typical tail withdrawal response was evaluated during a 10 seconds period after the immersion. ED50 values in mg/kg body weight were determined as that dose of the test compound capable of suppressing in 50% of the tested animals the typical tail withdrawal response during a time period exceeding 10 seconds. Said ED50 values obtained for the compounds of the present invention are gathered in Table 1 column two.

Compound | ED50 [1] [mg/kg] | ED50 [2] [mg/kg] | Ricinus Oil Test ED50 [1] [mg/kg body weight] | Tail Withdrawal Test ED50 [2] [mg/kg body weight]
CC(CC(C(=O)N(C)C)(c1ccccc1)c1ccccc1)N1CC[C@@H](NC(=O)c2cccc(C(F)(F)F)c2)[C@H](O)C1 (relative stereo) [Compound 1, trans-3-hydroxy-N,N,γ-trimethyl-α,α-diphenyl-4-[[3-(trifluoromethyl)benzoyl]amino]-1-piperidinebutanamide] | 0.15 | > 160 | – | –
CC(CC(C(=O)N(C)C)(c1ccccc1)c1ccccc1)N1CC[C@@H](NC(=O)c2ccc(Cl)c(Cl)c2)[C@H](O)C1 (relative stereo) [Compound 2] | 0.63 | > 160 | – | –
CC(CC(C(=O)N(C)C)(c1ccccc1)c1ccccc1)N1CC[C@@H](NC(=O)c2c(Cl)cccc2Cl)[C@H](O)C1 (relative stereo) [Compound 5] | 0.31 | ≥ 40 | – | –
CC(CC(C(=O)N(C)C)(c1ccccc1)c1ccccc1)N1CC[C@@H](NC(=O)c2cc(Cl)cc(Cl)c2)[C@H](O)C1 (relative stereo) [Compound 7] | 0.31 | > 40 | – | –
CC(CC(C(=O)N(C)C)(c1ccccc1)c1ccccc1)N1CC[C@@H](NC(=O)c2cccc(Cl)c2)[C@H](O)C1 (relative stereo) [Compound 10] | 0.04 | > 40 | – | –
CC(CC(C(=O)N(C)C)(c1ccccc1)c1ccccc1)N1CC[C@@H](NC(=O)c2cccc(Cl)c2[N+](=O)[O-])[C@H](O)C1 (relative stereo) [Compound 17] | 0.63 | > 40 | – | –
CC(CC(C(=O)N(C)C)(c1ccccc1)c1ccccc1)N1CC[C@@H](NC(=O)c2ccc(F)cc2[N+](=O)[O-])[C@H](O)C1 (relative stereo) [Compound 19] | 1.25 | > 40 | – | –
Cc1ccc([N+](=O)[O-])c(C(=O)N[C@@H]2CCN(C(C)CC(C(=O)N(C)C)(c3ccccc3)c3ccccc3)C[C@H]2O)c1 (relative stereo) [Compound 21] | ≤ 0.63 | > 40 | – | –
CC(CC(C(=O)N(C)C)(c1ccccc1)c1ccccc1)N1CC[C@@H](NC(=O)c2ccccc2OCc2ccccc2)[C@H](O)C1 (relative stereo) [Compound 29, trans-3-hydroxy-N,N,γ-trimethyl-α,α-diphenyl-4-[[2-(phenylmethoxy)benzoyl]amino]-1-piperidinebutanamide] | ≤ 0.63 | ~40 | – | –
COc1cc(Cl)ccc1C(=O)N[C@@H]1CCN(C(C)CC(C(=O)N(C)C)(c2ccccc2)c2ccccc2)C[C@H]1O (relative stereo) [Compound 30] | 0.63 | ≥ 40 | – | –
COc1c(Cl)cc(Cl)cc1C(=O)N[C@@H]1CCN(C(C)CC(C(=O)N(C)C)(c2ccccc2)c2ccccc2)C[C@H]1O (relative stereo) [Compound 31] | 0.63 | ~40 | – | –
CCCC(=O)c1ccc(OC)c(C(=O)N[C@@H]2CCN(C(C)CC(C(=O)N(C)C)(c3ccccc3)c3ccccc3)C[C@H]2O)c1 (relative stereo) [Compound 34] | < 2.5 | > 40 | – | –
CC(CC(C(=O)N(C)C)(c1ccccc1)c1ccccc1)N1CC[C@@H](NC(=O)c2cccc([N+](=O)[O-])c2Br)[C@H](O)C1 (relative stereo) [Compound 38] | 2.5 | > 40 | – | –
CC(CC(C(=O)N(C)C)(c1ccccc1)c1ccccc1)N1CC[C@@H](NC(=O)c2cc(Cl)ccc2N)[C@H](O)C1 (relative stereo) [Compound 47, trans-4-[(2-amino-5-chlorobenzoyl)amino]-3-hydroxy-N,N,γ-trimethyl-α,α-diphenyl-1-piperidinebutanamide] | 0.08 | ~40 | – | –
COc1cc(N)c(Cl)cc1C(=O)N[C@@H]1CCN(C(C)CC(C(=O)N(C)C)(c2ccccc2)c2ccccc2)C[C@H]1O (relative stereo) [Compound 50, trans-4-[(4-amino-5-chloro-2-methoxybenzoyl)amino]-3-hydroxy-N,N,γ-trimethyl-α,α-diphenyl-1-piperidinebutanamide] | 2.5 | > 40 | – | –
CO[C@@H]1CN(C(C)CC(C(=O)N(C)C)(c2ccccc2)c2ccccc2)CC[C@H]1NC(=O)c1cccc(C(F)(F)F)c1 (relative stereo) [Compound 52, trans-3-methoxy-N,N,γ-trimethyl-α,α-diphenyl-4-[[3-(trifluoromethyl)benzoyl]amino]-1-piperidinebutanamide] | 2.5 | 40 | – | –
COc1cc(N)c(Cl)cc1C(=O)N[C@@H]1CCN(C(C)CC(C(=O)N(C)C)(c2ccccc2)c2ccccc2)C[C@H]1OC (relative stereo) [Compound 53, trans-4-[(4-amino-5-chloro-2-methoxybenzoyl)amino]-3-methoxy-N,N,γ-trimethyl-α,α-diphenyl-1-piperidinebutanamide] | 2.5 | ~40 | – | –
COc1cc(NC(C)=O)c(Cl)cc1C(=O)N[C@@H]1CCN(C(C)CC(C(=O)N(C)C)(c2ccccc2)c2ccccc2)C[C@H]1O (relative stereo) [Compound 64, trans-4-[[4-(acetylamino)-5-chloro-2-methoxybenzoyl]amino]-3-hydroxy-N,N,γ-trimethyl-α,α-diphenyl-1-piperidinebutanamide] | 2.5 | > 40 | – | –
CC(CC(C(=O)N(C)C)(c1ccccc1)c1ccccc1)N1CC[C@@H](NC(=O)c2ccc(F)cc2N)[C@H](O)C1.O (relative stereo) [Compound 67, trans-4-[(2-amino-4-fluorobenzoyl)amino]-3-hydroxy-N,N,γ-trimethyl-α,α-diphenyl-1piperidinebutanamide monohydrate] | < 0.04 | > 40 | – | –
CC(CC(C(=O)N(C)C)(c1ccccc1)c1ccccc1)N1CC[C@@H](NC(=O)c2cccc(N)c2O)[C@H](O)C1 (relative stereo) [Compound 68, trans-4-[(3-amino-2-hydroxybenzoyl)amino]-3-hydroxy-N,N,γ-trimethyI-α,α-diphenyl-1-piperidinebutanamide] | 0.63 | > 40 | – | –
CC(CC(C(=O)N(C)C)(c1ccccc1)c1ccccc1)N1CC[C@@H](NC(=O)c2cccc(Cl)c2N)[C@H](O)C1 (relative stereo) [Compound 69, trans-4-[(2-amino-3-chlorobenzoyl)amino]-3-hydroxy-N,N,γ-trimethyl-α,α-diphenyl-1-piperidinebutanamide] | < 0.63 | > 40 | – | –
CC(CC(C(=O)N(C)C)(c1ccccc1)c1ccccc1)N1CC[C@@H](NC(=O)c2ccc(Cl)cc2N)[C@H](O)C1 (relative stereo) [Compound 70, trans-4-[(2-amino-4-chlorobenzoyl)amino]-3-hydroxy-N,N,γ-trimethyl-α,α-diphenyl 1-piperidinebutanamide monohydrate] | < 0.63 | > 40 | – | –
COc1cc(N)ccc1C(=O)N[C@@H]1CCN(C(C)CC(C(=O)N(C)C)(c2ccccc2)c2ccccc2)C[C@H]1O (relative stereo) [Compound 75, trans-4[(4-amino-2-methoxybenzoyl)amino]-3-hydroxy-N,N,γ-trimethyl-α,α-diphenyl-1-piperidinebutanamide] | 2.5 | > 40 | – | –
CC(CC(C(=O)N(C)C)(c1ccccc1)c1ccccc1)N1CC[C@@H](NC(=O)c2ccccc2O)[C@H](O)C1 (relative stereo) [Compound 77, trans-3-hydroxy-4-[(2-hydroxybenzoyl)-amino]-N,N,γ-trimethyl-α,α-diphenyl-1-piperidinebutanamide] | 0.16 | ≥ 40 | – | –
CC(CC(C(=O)N(C)C)(c1ccccc1)c1ccccc1)N1CCC(NC(=O)c2cccc(C(F)(F)F)c2)C(O)C1 (single isomer, unassigned; (+)) [Compound 57, (+)-(3B,trans)-3-hydroxy-N,N,γ-trimethyl-α,α-diphenyl-4-[[3-(trifluoromethyl)benzoyl]amino]-1-piperidinebutanamide] | – | > 160 | 0.31 | –
CC(CC(C(=O)N(C)C)(c1ccccc1)c1ccccc1)N1CCC(NC(=O)c2cccc(C(F)(F)F)c2)C(O)C1 (single isomer, unassigned; (-)) [Compound 55, (-)-(3A,trans)-3-hydroxy-N,N,γ-trimethyl-α,α-diphenyl-4-[[3-(trifluoromethyl)benzoyl]amino]-1-piperidinebutanamide] | – | – | 1.0 | > 160

Source: patent US4990521A, “4-(aroylamino)piperidine-butanimide derivatives” (Janssen Pharmaceutica, priority 1989, dated 1991)
